{"source": "patent EP1333824B1", "about": "“TREATMENT OF SEXUAL DYSFUNCTION WITH BOMBESIN RECEPTOR ANTAGONISTS” (Warner-Lambert Company LLC, priority 2000, dated 2002)", "key": {"[1]": {"test_system": "Ovariectomised adult female Sprague Dawley rats", "assay": "Female rat sexual proceptivity test (time investigating male vs female stimulus)", "format": "in vivo", "procedure": "Ovariectomised adult female Sprague Dawley rats (180-200g, from Charles River) were housed in groups of 6 in a reversed lighting system of 12h light:dark (lights off 7.00-19.00h). Two weeks after ovariectomy they were used for sexual activity tests. The experiments started at least 5h into the dark period.\nTests were carried out in a circular arena of 90cm diameter, surrounded by a 30cm high wall. Two small cages with wire-mesh front (15x15cm) are fixed into the wall such that the front of the cage is «flush» with the wall and the 2 cages are opposite each other. They contained two stimuli animals: an intact sexually experienced male and a receptive female (ovariectomised, primed with 5µg oestradiol benzoate dissolved in corn oil and injected subcutaneously 48 hours before the test and with 0.5 mg of progesterone four hours before the test). Sexually naive test and control animals were used. Forty eight hours before the tests, both the test and control animals were primed with 5µg oestradiol benzoate. For animals used as positive controls, progesterone (0.5mg/0.1ml) was dissolved in corn oil and administered subcutaneously (s.c.), 4h before the test. Test and control animals were introduced one at a time for 10 minute periods into the arena. During the 10min test, the time that the test or positive control animal spent investigating each stimulus animal was noted. The arena was thoroughly cleaned between animals. The position of the male/female stimuli boxes was randomised between animals, in order to avoid place preference. The difference in the percentage of time spent investigating the male minus the female stimuli was calculated, out of the total time spent investigating stimuli animals. […]\nOvariectomised adult female Sprague Dawley rats (180-200g) were housed in groups of 5 in a reversed lighting system of 12h light:dark (lights off 5.00-17.00h). They were used for the experiments at least two weeks after ovariectomy. Forty eight hours before tests, the animals were primed with oestradiol benzoate (5µg/0.1ml in corn oil, s.c.). On day 1, progesterone (0.5mg/0.1ml, in corn oil, s.c.) was administered to one of the groups 4h before tests, as a positive control. […] The test lasted 10 minutes and was carried out as described before. The difference in the percentage of time spent investigating the male minus the female stimuli was calculated, out of the total time spent investigating stimuli animals. Animals were submitted to a test on day 1 and on day 15. […] On day 15 the test took place again, as described for day 1. […]"}, "[2]": {"test_system": "Sprague Dawley male rats", "assay": "Sexual behaviour of normal (sexually vigorous) male rats", "format": "in vivo, rat", "conditions": "Compound (1) 15mg/kg or Fluoxetine 20mg/kg i.p. 1h before tests, vs vehicle", "procedure": "Sprague Dawley male rats (Charles River, UK) were kept, 4 rats per cage, in a reversed lighting regime (12:12 hours, lights off at 5.00 h), with free access to food and water. The rats were pre-selected by being presented with a receptive female at 4 days intervals, i.e. every third day (having 2 clear days between presentations) until completing 6-7 days of baseline determination. The animals showing consistently vigorous behaviour (ejaculatory latencies <300s) were chosen for further experiments (n=24). Animals were randomised into three groups. All animals received all three treatments following a latin-square design. Treatments were administered once a week, with a baseline test in between treatments (4 days intervals between baseline and test day). […] All treatments were administered i.p. in a 1ml/kg volume, 1h before tests.\nFor all the sexual behaviour tests, the males were placed in an observation arena (50-60 cm diameter), starting 5 hours into the dark cycle and observed under red illumination. Three to 4 minutes after placing the male in the arena, a receptive female (ovariectomised, bearing a 7 mm Silastic implant of oestradiol benzoate) was introduced to the arena and the following parameters noted: Mount Latency: time (in seconds) taken between introduction of female and first mount. A maximum time of 15 minutes (900 seconds) was allowed, and the test terminated if no mounts were recorded within that time (Figure 11), Intromission Latency: time (in seconds) taken between introduction of female and first intromission (Figure 12), Number of Mounts: to reach ejaculation. When ejaculation was not reached, the number of mounts was not analyzed, Number of Intromissions: to reach ejaculation. When ejaculation was not reached, the number of intromissions was not analyzed (Figure 13 is number of mounts + intromissions), Ejaculation Latency: time (in seconds) taken from first intromission to ejaculation. A maximum time of 30 minutes (1800 seconds) was given, and the test terminated if ejaculation was not achieved in that time (Figure 14), and Refractory Period: time (in seconds) taken from ejaculation to the first mount of the next series of sexual activity. In those animals reaching ejaculation the test was terminated at the end of the refractory period, as indicated by the first mount of the next sexual cycle (Figure 15).\nA one-way ANOVA followed by Dunnett's t test was used to compare treated vs vehicle groups each day of testing, for all the sexual behaviour parameters."}, "[3]": {"test_system": "Sprague Dawley male rats", "assay": "Sexual behaviour of fluoxetine-induced sexually dysfunctional male rats", "format": "in vivo, rat", "conditions": "fluoxetine 20mg/kg i.p. 3 days (vs vehicle+vehicle)", "procedure": "Sprague Dawley male rats (Charles River, UK) were kept, 4 rats per cage, in a reversed lighting regime (12:12 hours, lights off at 5.00 h), with free access to food and water. The rats were pre-selected by being presented with a receptive female at 4 days intervals, i.e. every third day (having 2 clear days between presentations) until completing 6-7 trials of baseline determination. The animals showing consistently vigorous behaviour (ejaculatory latencies <300s) were chosen for further experiments. Animals were treated for 3 consecutive days with either vehicle (water) or fluoxetine (20mg/kg, i.p., in a 2ml/kg dosing volume). […] All treatments were administered i.p. in a 1ml/kg volume, 1h before tests.\nFor all the sexual behaviour tests, the males were placed in an observation arena (50-60 cm diameter), starting 5 hours into the dark cycle and observed under red illumination. Three to 4 minutes after placing the male in the arena, a receptive female (ovariectomised, bearing a 7 mm Silastic implant of oestradiol benzoate) was introduced to the arena and the following parameters noted: Mount Latency: time (in seconds) taken between introduction of female and first mount. A maximum time of 15 minutes (900 seconds) was allowed, and the test terminated if no mounts were recorded within that time (Figure 16), Ejaculation Latency: time (in seconds) taken from first intromission to ejaculation. A maximum time of 30 minutes (1800 seconds) was given, and the test terminated if ejaculation was not achieved in that time (Figure 17), Percentage of males achieving ejaculation within 30 minutes was calculated (Figure 18).\nA one-way ANOVA followed by Dunnett's t test was used to compare the fluoxetine+vehicle group and other groups for mount and ejaculatory latencies. Percentage of animals ejaculating was analysed using a Chi-square test followed by Fisher's test. (*: P<0.05, **: P<0.01, ***: P<0.001; n=15-19)."}, "[4]": {"conditions": "day 4 Compound (1) 15mg/kg or yohimbine 2mg/kg i.p. 1h before tests (vs fluoxetine+vehicle)"}}, "data": [{"smiles": "COc1ccc(C2(CNC(=O)[C@](C)(Cc3c[nH]c4ccccc34)NC(=O)Nc3ccc([N+](=O)[O-])cc3)CCCCC2)nc1", "note": "[Compound (1), (S) 3-(1H-Indol-3-yl)-N-[1-(5-methoxy-pyridin-2-yl)-cyclohexyl-methyl]-2-methyl-2-[3-(4-nitro-phenyl)-ureido]-propionamide]", "values": [{"measurement": "percentage of time spent investigating the male stimulus", "setting": "[1]; Example 1, i.p., dose-dependent 3mg/kg-10mg/kg, 1h before tests, vs vehicle", "result": "increased the percentage of time spent investigating the male stimulus"}, {"measurement": "proceptivity, day 1", "setting": "[1]; Example 3, Compound (1) 15mg/kg i.p. 1h before test, progesterone 0.5mg/0.1ml s.c. 4h before, vs vehicle, P<0.01", "result": "stimulatory effect on proceptivity"}, {"measurement": "body weight or general behaviour", "setting": "[1]; Example 3, repeated daily administration 15mg/kg i.p. over 15 days", "result": "no changes in body weight or general behaviour"}, {"measurement": "MED (increase in percentage of time spent investigating the male stimulus)", "setting": "[1]; Example 4, i.c.v., 3-30µg/rat, 10min before tests", "result": 10, "unit": "µg"}, {"measurement": "percentage of time spent investigating the male stimulus", "setting": "[1]; Example 4, i.c.v., dose-dependent 3-30µg/rat, 10min before tests", "result": "increased the percentage of time spent investigating the male stimulus"}, {"measurement": "antagonism of the inhibitory effect of NMB on proceptivity", "setting": "[1]; Example 5, Compound (1) 15mg/kg i.p. 1h before i.c.v. NMB 100ng, blockade not total at this dose", "result": "prevented the inhibitory effect of NMB"}, {"measurement": "Ejaculation latency", "setting": "[2]", "result": "no effect"}, {"measurement": "Intromission latency", "setting": "[2]", "result": "no effect"}, {"measurement": "Mount latency", "setting": "[2]", "result": "no effect"}, {"measurement": "Refractory period", "setting": "[2]", "result": "no effect"}, {"measurement": "number of mounts and intromissions required to achieve ejaculation", "setting": "[2]", "result": "no effect"}, {"measurement": "Ejaculation latency", "setting": "[3]; [4]", "result": "significantly decreased"}, {"measurement": "Mount latency", "setting": "[3]; [4]", "result": "significantly decreased"}, {"measurement": "percentage of animals ejaculating", "setting": "[3]; within 30 minutes, day 4 Compound (1) 15mg/kg or yohimbine 2mg/kg i.p. (vs fluoxetine+vehicle)", "result": "increasing the percentage of animals ejaculating"}]}]}
